Assay results published in patent US20170216244A1, “METHODS FOR TREATING DIABETIC NEPHROPATHY” (YALE UNIVERSITY, priority 2014, published 2017).
Values joined by “and” are separate entries in the source; they are usually repeats but may differ in a detail not shown here. Equal entries are not always repeated. “Also recorded” adds a separate entry of the source.

Experiments:
Sema3a^+ podocytes = test: Podocyte morphology assay (rhodamine-phalloidin staining, cell area morphometry); type: cell-based
Procedure: Sema3a^+ podocyte cell line was described previously (Reidy et al., Am J Pathol 2013;183(4):1156-1168). Sema3a^+ podocytes were exposed to RPMI 1640 medium+1%FBS, medium+0.1 μM xanthofulvin, medium+100 ng/ml rat recombinant Sema3a (Reidy et al., Development 2009;136(23):3979-3989) or medium+xanthofulvin+Sema3a for 16 h, fixed and stained with rhodamine-phalloidin. Images were acquired (Zeiss Axiovert); podocyte area (μm^2) was measured using Zeiss AxioVision software as described (Reidy et al., Am J Pathol 2013;183(4):1156-1168), n=71±4 cells/experimental condition from 3 independent experiments were measured.

[1] = purified fungal xanthofulvin, in vivo; cited from earlier work
Sema3a = target: T1, Sema3a (Homo sapiens, UniProt Q14563); settings: fungal and synthetic xanthofulvin, in vitro; cited from earlier work
T1 sequence (Q14563 21-771): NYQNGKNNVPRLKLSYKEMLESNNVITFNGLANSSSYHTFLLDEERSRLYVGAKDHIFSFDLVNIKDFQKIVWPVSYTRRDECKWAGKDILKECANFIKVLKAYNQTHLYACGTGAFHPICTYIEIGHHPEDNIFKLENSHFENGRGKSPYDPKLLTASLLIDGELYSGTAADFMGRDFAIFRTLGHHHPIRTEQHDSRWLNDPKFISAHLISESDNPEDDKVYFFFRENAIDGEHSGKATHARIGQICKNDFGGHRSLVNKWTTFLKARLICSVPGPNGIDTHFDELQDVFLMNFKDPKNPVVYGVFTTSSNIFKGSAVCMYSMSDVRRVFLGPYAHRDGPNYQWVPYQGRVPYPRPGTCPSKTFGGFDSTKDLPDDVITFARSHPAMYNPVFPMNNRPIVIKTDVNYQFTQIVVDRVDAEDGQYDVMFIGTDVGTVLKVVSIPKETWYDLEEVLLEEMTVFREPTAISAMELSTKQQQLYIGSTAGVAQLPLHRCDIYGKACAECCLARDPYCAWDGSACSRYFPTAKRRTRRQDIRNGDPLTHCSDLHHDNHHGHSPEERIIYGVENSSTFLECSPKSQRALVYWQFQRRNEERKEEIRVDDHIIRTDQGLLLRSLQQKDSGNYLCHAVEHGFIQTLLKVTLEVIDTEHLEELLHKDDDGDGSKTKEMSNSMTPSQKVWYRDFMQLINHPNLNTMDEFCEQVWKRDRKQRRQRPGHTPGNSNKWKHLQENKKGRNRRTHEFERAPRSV

[2] = tested on: Sema3a^+ gain-of-function diabetic mice; test: Sema3a inhibition study: xanthofulvin subcutaneous infusion in Sema3a^+ gain-of-function diabetic mice; type: in vivo, mouse
Procedure: Podocin-rtTA:tet-O-Sema3a mice, herein called Sema3a^+, generated previously (Reidy et al., Development 2009;136(23):3979-3989) were maintained in FVB genetic background for >10 generations. Diabetes was induced (low dose protocol, AMDCC.org) in 6-8 weeks old male Sema3a^+ mice by 5 daily i.p. streptozotocin (STZ) (50 mg/kg) . Diabetes (random blood glucose >300 mg/dl) was confirmed using glucose oxidase biosensor blood glucose meter (One-Touch-Ultra-2; LifeScan) one week after the last STZ injection. Diabetic Sema3a^+ (DM-Sema3a^+) (n=15) and non-diabetic Sema3a^+ (non-DM-Sema3a^+) (n=18) mice were fed doxycycline-containing diet (0.625mg/kg chow, Harlan-Teklad) or standard chow for 12-16 weeks. After 12-16 weeks of diabetes, 24 h urine was collected in metabolic cages, blood and kidneys were collected under anesthesia. For Sema3a inhibition studies, DM-Sema3a^+ mice were fed doxycycline-containing chow for 8 weeks, then Alzet osmotic pumps (Model 1004) containing xanthofulvin (0.5 mg/ml in PBS) (Ieda et al., Nat Med 2007;13(5):604-612) (n=4) or saline (n=2) were implanted subcutaneously, all mice were kept on doxycycline-containing chow for the following 4 weeks.
Urinary albumin was measured using mouse albumin ELISA (Bethyl Laboratories) and SDS-PAGE/Coomassie Blue staining as described (Reidy et al., Am J Pathol 2013;183(4):1156-1168). Plasma and 24h urine creatinine were measured by HPLC. Transmission electron microscopy (TEM) was performed using standard techniques. Glomerular area was measured using ImageJ-NIH (rsb.info.nih.gov/ij/) in 34±2.1 glomeruli/kidney from 4 mice/experimental condition. A renal pathologist (G.M.) examined PAS stained kidney specimens in blinded fashion and assigned a semiquantitative pathology score based on % area (0=none;1=1-25%;2=26-50%;3=51-75%;4=76-100%) with the following features: glomerular nodules, mesangiolysis, mesangial sclerosis and interstitial fibrosis. The percentage glomeruli/section containing mesangiolysis or nodules was calculated (Veron et al., J Am Soc Nephrol. 2014;25(8):1814-1824).

podocytes = test: Podocyte MICAL1 knockdown morphology assay; type: cell-based; settings: mouse recombinant Sema3a 100 ng/ml, 6 hours
Procedure: (§1) Podocyte MICAL-1 knockdown was induced using a mouse MICAL-1 siRNA oligonucleotide ([…], SEQ ID NO: 1) (Zhou et al., Mol Cell Biol 2011;31(17):3603-3615) (Dharmacon). Briefly, podocytes were transfected with 200 pmol MICAL-1 siRNA or scrambled siRNA using Oligofectamine (Invitrogen) and incubated for 72 hours. MICAL1 knockdown was confirmed by immunoblot. Podocytes with or without MICAL1 knockdown were exposed to mouse recombinant Sema3a (100 ng/ml) for 6 hours. Podocytes were fixed, permeabilized, stained with rhodamine-phalloidin, and their morphology was analyzed as described above.

MICAL1 = test: Podocyte MICAL1 knockdown by siRNA, immunoblot; type: cell-based, mouse; settings: 200 pmol siRNA, 72 hours, cultured podocytes, densitometry
Procedure: Equal amount of protein from ≧4 kidney lysates/experimental condition were pooled and resolved by SDS-PAGE, immunoblotting was performed using standard technique with the following primary antibodies: WT1, podocin, nephrin, laminin, Sema3a (sc-28867; Santa Cruz), β3-integrin (sc-14009; Santa Cruz), β1-integrin (AB1952; EMD-Millipore), neuropilin-1 (Kolodkin et al., Cell 1997;90:753-762; Takahashi et al., Cell 1999;99(1):59-69), MMP-2 (MAB13434; EMD-Millipore), MMP-9 (AB19016; EMD-Millipore), plexinA1 (sc-25639; Santa Cruz), VEGFR-2 (2479; Cell Signaling), MICAL1 (14818-1-AP; Proteintech); actin (A2066; Sigma) or tubulin (Sigma) were used as loading controls. Signals were detected with appropriate HRP-conjugated secondary antibodies, visualized by chemiluminescence and quantified using ImageJ.
as §1

[3] = constant subcutaneous infusion ~1.8 μg/d for 30 days

CC(=O)c1c(C)c(/C(O)=C2\COc3cc(O)c(O)c(C(=O)O)c3C2=O)cc2c(=O)c3c(C(=O)O)c(O)c(O)cc3oc12 [xanthofulvin]
Sema3a-induced podocyte F-actin collapse, shape change and contraction (Sema3a^+ podocytes; 0.1 μM xanthofulvin, 100 ng/ml rat recombinant Sema3a, synthetic xanthofulvin): prevented Sema3a-induced podocyte F-actin collapse, shape change and contraction; also recorded: abrogates Sema3a-induced podocyte contraction in vitro; also recorded: abrogates Sema3a-induced podocyte F-actin collapse in vitro; also recorded: abrogates Sema3a-induced podocyte F-actin collapse, shape change and contraction | deleterious effects in cultured podocytes (Sema3a^+ podocytes; cultured podocytes): no deleterious effects in cultured podocytes | functional recovery of injured spinal cord [1]: promotes functional recovery of injured spinal cord | Sema3a-induced growth cone collapse (Sema3a): prevent Sema3a-induced growth cone collapse in vitro | GBM thickness (TEM morphometry) [2, 3]: significantly decreased GBM thickness; also recorded: quite normal GBM | body weight [2, 3]: stable body weight | creatinine clearance (renal insufficiency) [2, 3]: abrogated renal insufficiency; also recorded: normalized | diabetic glomerulosclerosis phenotype by histology and TEM [2, 3]: markedly attenuates the diabetic glomerulosclerosis phenotype; also recorded: abrogate the diabetic nodular glomerulosclerosis; also recorded: abrogated; also recorded: mild mesangial hypercellularity and extracellular matrix expansion | foot process effacement / FP width (TEM morphometry) [2, 3]: significantly decreased; also recorded: focal FPE | plasma albumin (hypoalbuminemia) [2, 3]: corrects hypoalbuminemia; also recorded: normalized | side effect [2, 3]: no apparent side effect | albuminuria ([2]; constant subcutaneous infusion ~1.8 μg/d for 30 days (weeks 8-12 after diabetes onset)): significantly decreases albuminuria; also recorded: decreased albuminuria; also recorded: improved albuminuria

siRNA: mouse MICAL-1 siRNA oligonucleotide (CAGGUGCCAUGACUAAGUAUU, SEQ ID NO: 1) (listed as RNA, chemistry not given here; listed as Mus musculus)
Sema3a-induced podocyte contraction and F-actin collapse after MICAL1 knockdown (podocytes): not susceptible to Sema3a-induced contraction; also recorded: prevents Sema3a-induced podocyte contraction and F-actin collapse | decrease of MICAL1 expression (knockdown) (MICAL1): 73±2.6% and ~75%
